From patent US20230149318A1, “COMBINATIONS OF NANOPARTICLE-ENCAPSULATED CARGO ENTITIES AND METHODS FOR MAKING AND USING SAME” (Nurevelation, LLC, priority 2021, published 2023)

Experiments:
[1] = NMR comparison of CBD before and after encapsulation into nanoparticles (stability); assay type: physicochemical; conditions: encapsulated CBD (bottom spectrum) relative to non-encapsulated CBD sample (top spectrum), FIG. 3
Description: In some aspects, the cannabinoid in the dispersion can have a purity of at least 90%. In a further aspect, the purity of the cannabinoid in the dispersion ranges from 90-100%. In a still further aspect, the purity of the cannabinoid in the dispersion ranges from 92-97%. In general, the inventors have discovered that the encapsulation process described herein can be improved with the use of a pure cannabinoid starting material (e.g., from 92-97% pure). Similarly, the nanoparticle encapsulated cannabinoid products can advantageously maintain the purity of the cannabinoid over extended periods of time. In some aspects, the purity of the cannabinoid starting material can be maintained once encapsulated for a period of twelve months or longer, e.g., 18 months or longer, or even 24 months or longer. The stable shelf life of the cannabinoid nanoparticles is an advantage over many existing methods for delivering cannabinoid products. In some aspects, the stability of the cannabinoid can be measured using NMR, e.g., by comparing a pre-encapsulated cannabinoid to a cannabinoid extracted from a nanoparticle prepared by a disclosed method.

[2] = dystonia and parkinsonism due to antipsychotics; cited from earlier work

SMILES | stability of CBD after encapsulation into nanoparticles (NMR spectra) [1] | duration of benefits [2] [h] | time until benefits are seen [2] [h]
C=C(C)[C@@H]1CCC(C)=C[C@H]1c1c(O)cc(CCCCC)cc1O [CBD, cannabidiol] | remains intact | – | –
CN1[C@@H]2CC[C@H]1C[C@@H](OC(c1ccccc1)c1ccccc1)C2 [Benztropine] | – | ≤ 10 | ≤ 2
